The source of these data is ChEMBL document CHEMBL3414454, “Designing and exploring active N'-[(5-nitrofuran-2-yl) methylene] substituted hydrazides against three Trypanosoma cruzi strains more prevalent in Chagas disease patients” (Eur J Med Chem, 2015).

Series [1] can be described thus: Selectivity index, ratio of IC50 for human LL24 cells to IC50 for Trypanosoma cruzi Silvio X10 cl1 epimastigote forms. Format: toxicity, cell-based. The settings on record: read-out: Ratio IC50.
A short description of series [2]: Cytotoxicity against human LL24 cells assessed as inhibition of cell growth after 24 hrs by MTT assay. Format: cell-based. The settings on record: LL24, 24 h. For orientation: Formazan colour is commonly taken as a measure of viable cells.
A short description of series [3]: Selectivity index, ratio of IC50 for human LL24 cells to IC50 for Trypanosoma cruzi Y epimastigote forms. The series is classed as toxicity, cell-based. The note with it: read-out: Ratio IC50.
Series [4] can be described thus: Selectivity index, ratio of IC50 for human LL24 cells to IC50 for Trypanosoma cruzi Bug 2149 cl10. Format: toxicity, cell-based. The settings on record: read-out: Ratio IC50.
In series [5] the test system is Trypanosoma cruzi. The series can be described thus: Anti-trypanosomal activity against Trypanosoma cruzi Silvio X10 cl1 epimastigote forms assessed as inhibition of parasite growth after 72 hrs by microplate reader based assay. Format: functional, organism-based. The settings on record: for IC50: Trypanosoma cruzi, Silvio X10 cl1, 72 h.
The subject of series [6] is Trypanosoma cruzi. Briefly: Anti-trypanosomal activity against Trypanosoma cruzi Y epimastigote forms assessed as inhibition of parasite growth after 72 hrs by microplate reader based assay. Format: functional, organism-based. The settings on record: for IC50: Trypanosoma cruzi, Y, 72 h.
The subject of series [7] is Trypanosoma cruzi. Briefly: Anti-trypanosomal activity against Trypanosoma cruzi Bug 2149 cl10 epimastigote forms assessed as inhibition of parasite growth after 72 hrs by microplate reader based assay. The note with it: for IC50: Trypanosoma cruzi, Bug 2149 cl10, CL1-0, 72 h. The series is classed as functional, organism-based.

A word on the IC50: it is the concentration that inhibits the measured activity by half. For `O=C(N/N=C/c1ccc([N+](=O)[O-])o1)C1CCCCC1`, the selectivity ratio in series [1] is > 15; in series [3] it was > 14; in series [4], > 16. For the same compound, the IC50 in series [2] is > 200 µM; in the series on Trypanosoma cruzi [5], 13.7 µM; with Trypanosoma cruzi [6], 14.4 µM; in the series with Trypanosoma cruzi [7], 12.8 µM. Also, the log1/IC50 in the series with Trypanosoma cruzi [5] is listed as 4.86; in the series with Trypanosoma cruzi [6], 4.84; with Trypanosoma cruzi [7], 4.89.

For the compound `CCCCCC(=O)N/N=C/c1ccc([N+](=O)[O-])o1`, the selectivity ratio was 10 in series [1], 10 in series [3] and 8 in series [4]. Also, the IC50 worked out at 99 µM in series [2], 9.72 µM with Trypanosoma cruzi [5], 10.2 µM in the series on Trypanosoma cruzi [6] and 12.2 µM with Trypanosoma cruzi [7]. Also, the log1/IC50 with Trypanosoma cruzi [5] is reported as 5.01; with Trypanosoma cruzi [6], 4.99; with Trypanosoma cruzi [7] it was 4.91.

As to `CCCCCCCC(=O)N/N=C/c1ccc([N+](=O)[O-])o1`, the selectivity ratio in series [1] amounted to 6; in series [3], 7; in series [4] it was 6. Besides, the IC50 amounted to 91 µM in series [2], 14.7 µM with Trypanosoma cruzi [5], 13.5 µM in the series with Trypanosoma cruzi [6] and 14.4 µM in the series with Trypanosoma cruzi [7]. For the same compound, the values for the log1/IC50 in the series with Trypanosoma cruzi [5], in the series with Trypanosoma cruzi [6] and in the series on Trypanosoma cruzi [7] were 4.83, 4.87 and 4.84, respectively.

`N#Cc1ccc(C(=O)N/N=C/c2ccc([N+](=O)[O-])o2)cc1`: the values for the selectivity ratio in series [1], in series [3] and in series [4] were > 5, > 9 and > 8, respectively. For the same compound, the IC50 in series [2] was > 200 µM; in the series on Trypanosoma cruzi [5] it was 37.4 µM; in the series with Trypanosoma cruzi [6], 23.1 µM; in the series on Trypanosoma cruzi [7], 25.3 µM. The log1/IC50 in the series on Trypanosoma cruzi [5] was determined as 4.43; in the series with Trypanosoma cruzi [6] it was 4.64; in the series with Trypanosoma cruzi [7] it was 4.6.

As to `CCCCc1ccc(C(=O)N/N=C/c2ccc([N+](=O)[O-])o2)cc1`, the selectivity ratio was > 42 in series [1], > 64 in series [3] and > 45 in series [4]. Moreover, the IC50 in series [2] is > 200 µM; in the series with Trypanosoma cruzi [5] it was 4.75 µM; in the series with Trypanosoma cruzi [6] it was 3.1 µM; in the series with Trypanosoma cruzi [7], 4.41 µM. The log1/IC50 was found to be 5.32 with Trypanosoma cruzi [5], 5.51 in the series on Trypanosoma cruzi [6] and 5.36 in the series on Trypanosoma cruzi [7].

`O=C(N/N=C/c1ccc([N+](=O)[O-])o1)C1CCCC1`: the selectivity ratio was 3 in series [1], 5 in series [3] and 4 in series [4]. Further, the IC50 in series [2] stood at 58 µM; in the series with Trypanosoma cruzi [5], 19.9 µM; in the series with Trypanosoma cruzi [6] it was 11.9 µM; with Trypanosoma cruzi [7], 14.6 µM. For the same compound, the log1/IC50 is 4.7 with Trypanosoma cruzi [5], 4.93 in the series on Trypanosoma cruzi [6] and 4.84 in the series with Trypanosoma cruzi [7].

In the case of `CCCc1ccc(C(=O)N/N=C/c2ccc([N+](=O)[O-])o2)cc1`, the selectivity ratio in series [1] was determined as 9; in series [3] it was 10; in series [4], 9. Also, the IC50 in series [2] came out at 89 µM; in the series with Trypanosoma cruzi [5] it was 10.3 µM; with Trypanosoma cruzi [6] it was 9.09 µM; in the series on Trypanosoma cruzi [7], 9.8 µM. Further, the log1/IC50 in the series with Trypanosoma cruzi [5] is reported as 4.99; in the series with Trypanosoma cruzi [6], 5.04; in the series on Trypanosoma cruzi [7] it was 5.01.

Turning to `CC(C)(C)OC(=O)N/N=C/c1ccc([N+](=O)[O-])o1`, the selectivity ratio in series [1] was > 14; in series [3], > 21; in series [4], > 16. In addition, the IC50 in series [2] was > 200 µM; with Trypanosoma cruzi [5], 13.8 µM; in the series on Trypanosoma cruzi [6], 9.41 µM; in the series with Trypanosoma cruzi [7], 12.2 µM. Besides, the log1/IC50 was 4.86 in the series with Trypanosoma cruzi [5], 5.03 in the series on Trypanosoma cruzi [6] and 4.91 in the series on Trypanosoma cruzi [7].

Take `O=C(Cc1ccccc1)N/N=C/c1ccc([N+](=O)[O-])o1`: the selectivity ratio in series [1] stood at 4.79; in series [3] it was 8.83; in series [4], 7.91. Moreover, the IC50 in series [2] worked out at 97 µM; in the series with Trypanosoma cruzi [5] it was 20.2 µM; with Trypanosoma cruzi [6], 11 µM; in the series with Trypanosoma cruzi [7] it was 12.3 µM. Besides, the log1/IC50 with Trypanosoma cruzi [5] is 4.69; in the series with Trypanosoma cruzi [6] it was 4.96; in the series with Trypanosoma cruzi [7], 4.91.

Consider `CC(C)c1ccc(C(=O)N/N=C/c2ccc([N+](=O)[O-])o2)cc1`, for which the selectivity ratio in series [1] was > 33; in series [3], > 51; in series [4] it was > 22. In addition, the IC50 is > 200 µM in series [2], 6.09 µM with Trypanosoma cruzi [5], 3.91 µM with Trypanosoma cruzi [6] and 9.04 µM with Trypanosoma cruzi [7]. Moreover, the log1/IC50 in the series with Trypanosoma cruzi [5] was 5.22; with Trypanosoma cruzi [6], 5.41; with Trypanosoma cruzi [7] it was 5.04.

`Cc1cccc(C(=O)N/N=C/c2ccc([N+](=O)[O-])o2)c1`: the selectivity ratio in series [1] was > 7; in series [3] it was > 20; in series [4], > 8. Further, the IC50 in series [2] is > 200 µM; in the series with Trypanosoma cruzi [5] it was 27.7 µM; with Trypanosoma cruzi [6] it was 9.89 µM; in the series with Trypanosoma cruzi [7], 24.8 µM. In addition, the log1/IC50 in the series with Trypanosoma cruzi [5] is 4.56; in the series on Trypanosoma cruzi [6], 5; in the series with Trypanosoma cruzi [7], 4.61.

Consider `O=C(N/N=C/c1ccc([N+](=O)[O-])o1)c1ccccc1`, for which the selectivity ratio was determined as 5.72 in series [1], 14 in series [3] and 12.5 in series [4]. Moreover, the IC50 in series [2] came out at 178 µM; in the series with Trypanosoma cruzi [5] it was 31.1 µM; in the series on Trypanosoma cruzi [6], 12.6 µM; in the series on Trypanosoma cruzi [7], 14.2 µM. Moreover, the log1/IC50 is reported as 4.51 in the series with Trypanosoma cruzi [5], 4.9 in the series on Trypanosoma cruzi [6] and 4.85 in the series on Trypanosoma cruzi [7].

Consider `O=C(N/N=C/c1ccc([N+](=O)[O-])o1)c1ccc(Cl)cc1`, for which the selectivity ratio in series [1] is 9.36; in series [3], 20.4; in series [4], 12.9. For the same compound, the IC50 in series [2] stood at 187 µM; in the series on Trypanosoma cruzi [5], 20 µM; with Trypanosoma cruzi [6], 9.15 µM; with Trypanosoma cruzi [7] it was 14.5 µM. For the same compound, the results for the log1/IC50 with Trypanosoma cruzi [5], in the series with Trypanosoma cruzi [6] and in the series on Trypanosoma cruzi [7] were 4.7, 5.04 and 4.84, respectively.

Regarding `CN(C)c1ccc(C(=O)N/N=C/c2ccc([N+](=O)[O-])o2)cc1`, the values for the selectivity ratio in series [1], in series [3] and in series [4] were > 2, > 2 and > 4, respectively. Moreover, the IC50 is > 200 µM in series [2], 100 µM with Trypanosoma cruzi [5], 100 µM with Trypanosoma cruzi [6] and 47.3 µM with Trypanosoma cruzi [7]. In addition, the log1/IC50 in the series on Trypanosoma cruzi [5] turned out to be 4; with Trypanosoma cruzi [6] it was 4; in the series with Trypanosoma cruzi [7], 4.33.

In the case of `O=C(Cn1ccnc1[N+](=O)[O-])NCc1ccccc1` [BENZNIDAZOLE], the values for the IC50 (in series [2]; in the series on Trypanosoma cruzi [6]) were > 200 µM and 40.4 µM, respectively.

In the case of `O=C(N/N=C/c1ccc([N+](=O)[O-])o1)c1ccc(O)cc1` [NIFUROXAZIDE], the IC50 is > 200 µM in series [2], 300 µM with Trypanosoma cruzi [6] and 300 µM in the series with Trypanosoma cruzi [7]. The selectivity ratio in series [3] and in series [4] was > 1 each time. The log1/IC50 in the series on Trypanosoma cruzi [6] and in the series with Trypanosoma cruzi [7] was 3.52 throughout.
